Source: patent US20190216751A1, “Compositions and Methods for the Treatment and Prevention of Cancer” (California State University Northridge, priority 2017, published 2019)

Tests used:
[1] = system: E-cadherin in 67NR cell line; test: Western blot E-cadherin after GC7; format: cell-based, mouse; conditions: increased GC7 concentration, 48 hours; only in 67NR
Description: (§1) The inventors sought to determine if the decrease in cell viability is due to the inhibition of post translational modification of eIF5A. To test this, all cell lines were treated with GC7 at 100 μM for 48 hours—which were the time point and concentration at which a decrease in cell viability was seen (FIG. 2B). The inventors then collected, performed a western blot and immunoblotted for hypusine, total eIF5A and β-actin as a loading control (FIG. 3A). […] To test if this effect is dose-dependent, 4T1, 67NR and MCF10CA1a cells were treated with various concentrations of GC7 ranging from 0.1 μM to 100 μM. Protein lysates were then collected after 48 hours of treatment and performed a western blot. […] To validate this in breast cancer cells, the inventors immunoblotted for PEAK1 as well as E-cadherin, hypusine, total eIF5A and β-actin as a loading control (FIG. 3B). […] The inventors next looked at cell viability at lower concentrations of GC7, such as 1 μM and 10 μM, where a decrease in hypusinated eIF5A is still achieved but the decrease in cell viability is not as great in lower concentrations that do still target hypusinated eIF5A (FIG. 3C).
(§2) Cell lines were plated in a 6 well plate at 1e5 cells/mL and left to attach overnight. […] Protein concentrations were determined using Bradford Assay. […] Band intensity graphs were quantified using Fiji software after image thresholding.

PEAK1 protein = test: Western blot PEAK1; format: cell-based, mouse, human; conditions: GC7 0.1 μM to 100 μM, 48 hours; 4T1, 67NR and MCF10CA1a cells
Description: as §1, §2

[2] = system: 4T1, 67NR, MCF10AT1k, MCF10CA1h and MCF10CA1a; test: Cell viability at 100 μM GC7, phase-contrast imaging across cell lines; format: cell-based, mouse, human; conditions: 100 μM GC7, 48 hours
Description: There are currently two drugs available that can target the activation of eIF5A. Its role of hypusination/activation is spermidine dependent and is carried out in two subsequent steps by the enzymes deoxyhypusine synthase (DHPS) catalyzing the first step and deoxyhypusine hydroxylase (DOHH) catalyzing the second step. The efficacy and potency of the two drugs in the selected cell lines; GC7 (N1-Guanyl-1,7-diaminoheptane)—a selective inhibitor of DHPS, and CPX (Ciclopirox olomine)—which chelates iron that is important for the activity of DOHH (FIG. 2A) are shown. The concentration that determines a 50% decrease in cell viability is noted by the IC50 values on each graph for each drug. These cells were imaged when treated with the second highest concentration of GC7 at 100 μM to show a decrease in cell viability after 48 hours of treatment (FIG. 2B). […] From this point forward, all experiments performed used only GC7 as the selected drug to target hypusinated eIF5A.
The inventors sought to determine if the decrease in cell viability is due to the inhibition of post translational modification of eIF5A. To test this, all cell lines were treated with GC7 at 100 μM for 48 hours—which were the time point and concentration at which a decrease in cell viability was seen (FIG. 2B). […]

BT549 cells = test: Cell proliferation assay (CellTiter 96 AQueous One, MTS); format: cell-based, human; conditions: TubA 1 μM pretreatment, GC7 0.1 nM to 1 mM
Description: (§3) The next research questions revolved around asking how TGFβ is regulating eIF5A and what other proteins might be involved to completely block TGFβ-induced EMT. This led to histone deacetylase enzyme 6 (HDAC6). HDAC6 has been previously reported to be responsible for the deacetylation of eIF5A in the nucleus in order to make it readily available for hypusination and later transport out in the cytoplasm for functioning as a translation factor. To determine if it were possible to further increase the efficacy or potency of GC7, the inventors co-treated with Tubastatin A (an HDAC6 inhibitor) in 4T1 and 67NR cells as well as MDA-MB-468 cells which initially were not very sensitive to GC7. Triple negative human breast cancer cell line, BT547, was also used to see if another cell line representative of this breast cancer subtype was sensitive towards DHPS and HDAC6 inhibition. (FIGS. 5A and 5B). […] MDA-MB-468 and BT549 cells remained to be insensitive to TubA with or without GC7 pretreatment (FIG. 5A). […]
(§4) The CellTiter 96® AQueous One Solution (Promega) was used to perform cell proliferation experiments. […] Absorbance readings were measured at 490 nm wavelength at 1.5, 2 and 3 hours (absorbance is directly proportional to the number of living cells).

MDA-MB-468 cells = test: as above; format: cell-based, human; conditions: TubA 1 μM pretreatment, GC7 0.1 nM to 1 mM
Description: as §3, §4

N=C(N)NCCCCCCCN.O=S(=O)(O)O [GC7, N1-Guanyl-1,7-diaminoheptane]
E-cadherin protein expression [1]: decrease in E-cadherin | PEAK1 protein expression (PEAK1 protein): striking down regulation of PEAK1 protein in a dose-dependent manner | decrease in cell viability [2]: largest decrease in cell viability | change of potency of GC7 by TubA pretreatment (cell viability) (BT549 cells): this effect was not seen in the three other cell lines | change of potency of GC7 by TubA pretreatment (cell viability) (MDA-MB-468 cells): this effect was not seen in the three other cell lines
